{"source": "patent US20120289547A1", "about": "“COMBINATIONS OF PROPIVERINE AND SALIVARY STIMULANTS FOR THE TREATMENT OF OVERACTIVE BLADDER” (THERAVIDA, INC., priority 2011, published 2012)", "origin": "cited, not measured here", "conditions": "5 mg of pilocarpine"}
{"smiles": "CC[C@@H]1C(=O)OC[C@@H]1Cc1cncn1C", "note": "[pilocarpine]", "values": [{"measurement": "Time of maximum saliva output after administration", "value": "about 30 minutes"}]}
